Measurements taken from article PMC5024318, “Crystal structures of the bifunctional tRNA methyltransferase Trm5a” (Scientific Reports, 2016).

Experiments:
PaTrm5a [1] = target: T1, PaTrm5a (Pyrococcus abyssi, UniProt Q9V2G1); test: X-ray crystal structure, cocrystallisation with SAM (MTA as its degradation product), […] Å; assay type: binding; conditions: PEG 3350, HEPES pH 7.5, Ca(OAc)2, KCl, 25 °C; SAM site in D3
T1 construct: gene taw22

PaTrm5a [2] = target: T1, PaTrm5a; test: X-ray crystal structure, cocrystallisation, […] Å; assay type: binding; conditions: PEG 3350, HEPES pH 7.5, Ca(OAc)2, KCl, 25 °C; SAM site in D3

T1 sequence (Q9V2G1 whole entry): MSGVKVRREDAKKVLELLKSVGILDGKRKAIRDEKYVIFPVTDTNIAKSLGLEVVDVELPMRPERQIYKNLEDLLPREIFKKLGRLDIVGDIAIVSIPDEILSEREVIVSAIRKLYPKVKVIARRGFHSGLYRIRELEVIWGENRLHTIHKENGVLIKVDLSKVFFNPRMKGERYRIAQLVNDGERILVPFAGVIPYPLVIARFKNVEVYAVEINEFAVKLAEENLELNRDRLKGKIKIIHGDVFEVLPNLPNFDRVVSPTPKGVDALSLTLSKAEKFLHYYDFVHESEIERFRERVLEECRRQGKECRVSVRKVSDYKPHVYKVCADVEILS

Compound	X-ray crystal structure, cocrystallisation with SAM (MTA as its degradation prod) (PaTrm5a [1])	X-ray crystal structure, cocrystallisation, 2.00 Å (PaTrm5a [2])
CSC[C@H]1O[C@@H](n2cnc3c(N)ncnc32)[C@H](O)[C@@H]1O [MTA, 5′-methylthioadenosine]	MTA fits well in the ligand-binding pocket, and interacts with the enzyme	–
Nc1ncnc2c1ncn2[C@@H]1O[C@H](CSCC[C@H](N)C(=O)O)[C@@H](O)[C@H]1O [SAH, S-adenosyl-L-homocysteine]	–	the adenosine moiety and the methionine group are specifically recognised by hydrogen bonding interactions
